# Laboratory results published in ChEMBL document CHEMBL1177794, “Broad spectrum alkynyl inhibitors of T315I Bcr-Abl” (Bioorg Med Chem Lett, 2010).
# Tests used:
# [1] = target: Cyclin-dependent kinase-like 3 (Homo sapiens) (UniProt Q8IVW4); assay: Inhibition of CDKL3 at 10 uM; settings: values are per cent of control
# [2] = target: Ribosomal protein S6 kinase alpha-5 (Homo sapiens) (UniProt O75582); assay: Inhibition of RPS6KA5 N-terminal domain1 at 10 uM
# [3] = target: Cyclin-dependent kinase-like 2 (Homo sapiens) (UniProt Q92772); assay: Inhibition of CDKL2 at 10 uM; settings: values are per cent of control
# [4] = target: Serine/threonine-protein kinase BRSK1 (Homo sapiens) (UniProt Q8TDC3); assay: Inhibition of BRSK1 at 10 uM; settings: values are per cent of control
# [5] = target: SNF-related serine/threonine-protein kinase (Homo sapiens) (UniProt Q9NRH2); assay: Inhibition of SNRK at 10 uM
# [6] = system: Tyrosine-protein kinase ABL1 (Homo sapiens), P00519 [E255K]; assay: Inhibition of phosphorylated ABL1 E255K mutant at 10 uM; settings: values are per cent of control
# [7] = target: Activin receptor type-2A (Homo sapiens) (UniProt P27037); assay: Inhibition of ACVR2A at 10 uM; settings: values are per cent of control
# [8] = target: Mitogen-activated protein kinase 14 (Homo sapiens) (UniProt Q16539); assay: Inhibition of p38alpha at 10 uM; values are per cent of control
# [9] = target: Serine/threonine-protein kinase MRCK gamma (Homo sapiens) (UniProt Q6DT37); assay: Inhibition of DMPK2 at 10 uM; settings: values are per cent of control
# [10] = target: Rho-associated protein kinase 1 (Homo sapiens) (UniProt Q13464); assay: Inhibition of ROCK1 at 10 uM
# [11] = target: Mitogen-activated protein kinase 1 (Homo sapiens) (UniProt P28482); assay: Inhibition of ERK2 at 10 uM; values are per cent of control
# [12] = target: Serine/threonine-protein kinase 26 (Homo sapiens) (UniProt Q9P289); assay: Inhibition of MST4 at 10 uM
# [13] = target: Bone morphogenetic protein receptor type-2 (Homo sapiens) (UniProt Q13873); assay: Inhibition of BMPR2 at 10 uM; values are per cent of control
# [14] = target: Mitogen-activated protein kinase 3 (Homo sapiens) (UniProt P27361); assay: Inhibition of ERK1 at 10 uM; settings: values are per cent of control
# [15] = target: Ribosomal protein S6 kinase beta-1 (Homo sapiens) (UniProt P23443); assay: Inhibition of S6K1 at 10 uM
# [16] = target: Ribosomal protein S6 kinase alpha-6 (Homo sapiens) (UniProt Q9UK32); assay: Inhibition of RSK4 C-terminal domain2 at 10 uM
# [17] = target: G protein-coupled receptor kinase 4 (Homo sapiens) (UniProt P32298); assay: Inhibition of GRK4 at 10 uM; settings: values are per cent of control
# [18] = target: Serine/threonine-protein kinase 17B (Homo sapiens) (UniProt O94768); assay: Inhibition of DRAK2 at 10 uM; settings: values are per cent of control
# [19] = target: Tyrosine-protein kinase JAK3 (Homo sapiens) (UniProt P52333); assay: Inhibition of JAK3 JH1 catalytic domain at 10 uM; values are per cent of control
# [20] = target: Serine/threonine-protein kinase Chk2 (Homo sapiens) (UniProt O96017); assay: Inhibition of CHEK2 at 10 uM; values are per cent of control
# [21] = system: Leucine-rich repeat serine/threonine-protein kinase 2 (Homo sapiens), Q5S007 [G2019S]; assay: Inhibition of LRRK2 G2019S mutant at 10 uM; settings: values are per cent of control
# [22] = target: RAF proto-oncogene serine/threonine-protein kinase (Homo sapiens) (UniProt P04049); assay: Inhibition of RAF1 at 10 uM; settings: values are per cent of control
# [23] = target: Cyclin-dependent kinase 4/cyclin D1 (Homo sapiens) (UniProt P11802+P24385); assay: Inhibition of CDK4/cyclin D1 at 10 uM; values are per cent of control
# [24] = target: cAMP-dependent protein kinase catalytic subunit alpha (Homo sapiens) (UniProt P17612); assay: Inhibition of PKAC-alpha at 10 uM; settings: values are per cent of control
# [25] = target: Glycogen synthase kinase-3 alpha (Homo sapiens) (UniProt P49840); assay: Inhibition of GSK3A at 10 uM; settings: values are per cent of control
# [26] = target: Protein-tyrosine kinase 6 (Homo sapiens) (UniProt Q13882); assay: Inhibition of BRK at 10 uM; settings: values are per cent of control
# [27] = target: Ribosomal protein S6 kinase alpha-4 (Homo sapiens) (UniProt O75676); assay: Inhibition of RPS6KA4 N-terminal domain1 at 10 uM
# [28] = target: Aurora kinase C (Homo sapiens) (UniProt Q9UQB9); assay: Inhibition of AURKC at 10 uM; settings: values are per cent of control
# [29] = target: Serine/threonine-protein kinase D2 (Homo sapiens) (UniProt Q9BZL6); assay: Inhibition of PRKD2 at 10 uM
# [30] = target: Serine/threonine-protein kinase SIK2 (Homo sapiens) (UniProt Q9H0K1); assay: Inhibition of SIK2 at 10 uM
# [31] = target: Ephrin type-B receptor 4 (Homo sapiens) (UniProt P54760); assay: Inhibition of EPHB4 at 10 uM; settings: values are per cent of control
# [32] = target: Casein kinase I isoform gamma-2 (Homo sapiens) (UniProt P78368); assay: Inhibition of CSNK1G2 at 10 uM; values are per cent of control
# [33] = target: Serine/threonine-protein kinase OSR1 (Homo sapiens) (UniProt O95747); assay: Inhibition of OSR1 at 10 uM
# [34] = system: Mast/stem cell growth factor receptor Kit (Homo sapiens), P10721 [V559D,V654A]; assay: Inhibition of KIT V559D, V654A mutant at 10 uM; settings: values are per cent of control
# [35] = target: Receptor tyrosine-protein kinase erbB-4 (Homo sapiens) (UniProt Q15303); assay: Inhibition of ERBB4 at 10 uM; values are per cent of control
# [36] = target: Serine/threonine-protein kinase PLK2 (Homo sapiens) (UniProt Q9NYY3); assay: Inhibition of PLK2 at 10 uM; settings: values are per cent of control
# [37] = target: Phosphatidylinositol 4,5-bisphosphate 3-kinase catalytic subunit gamma isoform (Homo sapiens) (UniProt P48736); assay: Inhibition of PIK3CG at 10 uM
# [38] = system: Epidermal growth factor receptor (Homo sapiens), P00533 [L858R]; assay: Inhibition of EGFR L858R mutant at 10 uM; values are per cent of control
# [39] = target: Ephrin type-A receptor 7 (Homo sapiens) (UniProt Q15375); assay: Inhibition of EPHA7 at 10 uM; settings: values are per cent of control
# [40] = target: Serine/threonine-protein kinase 32C (Homo sapiens) (UniProt Q86UX6); assay: Inhibition of YANK3 at 10 uM; settings: values are per cent of control
# [41] = system: Proto-oncogene tyrosine-protein kinase receptor Ret (Homo sapiens), P07949 [V804L]; assay: Inhibition of RET V804L mutant at 10 uM; values are per cent of control
# Ribosomal protein S6 kinase beta-1 (Homo sapiens), sequence (P23443 whole entry, looked up, the tested form may be a part): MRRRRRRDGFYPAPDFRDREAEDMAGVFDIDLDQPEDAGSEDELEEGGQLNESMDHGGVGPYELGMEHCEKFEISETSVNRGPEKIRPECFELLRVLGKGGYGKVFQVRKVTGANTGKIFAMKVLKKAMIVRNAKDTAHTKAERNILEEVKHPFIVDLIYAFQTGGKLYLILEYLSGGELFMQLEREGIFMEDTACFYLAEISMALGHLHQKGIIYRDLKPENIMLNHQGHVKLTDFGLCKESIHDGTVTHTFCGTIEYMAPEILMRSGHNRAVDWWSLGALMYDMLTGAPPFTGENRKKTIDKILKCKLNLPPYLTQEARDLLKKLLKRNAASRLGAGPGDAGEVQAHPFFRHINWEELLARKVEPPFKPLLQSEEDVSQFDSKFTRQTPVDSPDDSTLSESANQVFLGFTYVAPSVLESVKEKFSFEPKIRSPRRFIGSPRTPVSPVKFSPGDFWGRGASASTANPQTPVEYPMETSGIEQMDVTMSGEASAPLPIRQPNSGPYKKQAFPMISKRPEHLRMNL
# Aurora kinase C (Homo sapiens), sequence (Q9UQB9 whole entry): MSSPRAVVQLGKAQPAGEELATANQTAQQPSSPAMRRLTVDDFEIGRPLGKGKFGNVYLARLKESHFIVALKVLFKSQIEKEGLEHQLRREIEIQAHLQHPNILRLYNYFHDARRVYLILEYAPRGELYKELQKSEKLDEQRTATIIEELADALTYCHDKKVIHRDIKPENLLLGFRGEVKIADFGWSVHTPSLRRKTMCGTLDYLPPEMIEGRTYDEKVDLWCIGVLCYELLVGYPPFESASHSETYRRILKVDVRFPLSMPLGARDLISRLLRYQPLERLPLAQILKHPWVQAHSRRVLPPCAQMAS
# Leucine-rich repeat serine/threonine-protein kinase 2 (Homo sapiens), Q5S007 [G2019S], sequence (Q5S007 whole entry G2019S): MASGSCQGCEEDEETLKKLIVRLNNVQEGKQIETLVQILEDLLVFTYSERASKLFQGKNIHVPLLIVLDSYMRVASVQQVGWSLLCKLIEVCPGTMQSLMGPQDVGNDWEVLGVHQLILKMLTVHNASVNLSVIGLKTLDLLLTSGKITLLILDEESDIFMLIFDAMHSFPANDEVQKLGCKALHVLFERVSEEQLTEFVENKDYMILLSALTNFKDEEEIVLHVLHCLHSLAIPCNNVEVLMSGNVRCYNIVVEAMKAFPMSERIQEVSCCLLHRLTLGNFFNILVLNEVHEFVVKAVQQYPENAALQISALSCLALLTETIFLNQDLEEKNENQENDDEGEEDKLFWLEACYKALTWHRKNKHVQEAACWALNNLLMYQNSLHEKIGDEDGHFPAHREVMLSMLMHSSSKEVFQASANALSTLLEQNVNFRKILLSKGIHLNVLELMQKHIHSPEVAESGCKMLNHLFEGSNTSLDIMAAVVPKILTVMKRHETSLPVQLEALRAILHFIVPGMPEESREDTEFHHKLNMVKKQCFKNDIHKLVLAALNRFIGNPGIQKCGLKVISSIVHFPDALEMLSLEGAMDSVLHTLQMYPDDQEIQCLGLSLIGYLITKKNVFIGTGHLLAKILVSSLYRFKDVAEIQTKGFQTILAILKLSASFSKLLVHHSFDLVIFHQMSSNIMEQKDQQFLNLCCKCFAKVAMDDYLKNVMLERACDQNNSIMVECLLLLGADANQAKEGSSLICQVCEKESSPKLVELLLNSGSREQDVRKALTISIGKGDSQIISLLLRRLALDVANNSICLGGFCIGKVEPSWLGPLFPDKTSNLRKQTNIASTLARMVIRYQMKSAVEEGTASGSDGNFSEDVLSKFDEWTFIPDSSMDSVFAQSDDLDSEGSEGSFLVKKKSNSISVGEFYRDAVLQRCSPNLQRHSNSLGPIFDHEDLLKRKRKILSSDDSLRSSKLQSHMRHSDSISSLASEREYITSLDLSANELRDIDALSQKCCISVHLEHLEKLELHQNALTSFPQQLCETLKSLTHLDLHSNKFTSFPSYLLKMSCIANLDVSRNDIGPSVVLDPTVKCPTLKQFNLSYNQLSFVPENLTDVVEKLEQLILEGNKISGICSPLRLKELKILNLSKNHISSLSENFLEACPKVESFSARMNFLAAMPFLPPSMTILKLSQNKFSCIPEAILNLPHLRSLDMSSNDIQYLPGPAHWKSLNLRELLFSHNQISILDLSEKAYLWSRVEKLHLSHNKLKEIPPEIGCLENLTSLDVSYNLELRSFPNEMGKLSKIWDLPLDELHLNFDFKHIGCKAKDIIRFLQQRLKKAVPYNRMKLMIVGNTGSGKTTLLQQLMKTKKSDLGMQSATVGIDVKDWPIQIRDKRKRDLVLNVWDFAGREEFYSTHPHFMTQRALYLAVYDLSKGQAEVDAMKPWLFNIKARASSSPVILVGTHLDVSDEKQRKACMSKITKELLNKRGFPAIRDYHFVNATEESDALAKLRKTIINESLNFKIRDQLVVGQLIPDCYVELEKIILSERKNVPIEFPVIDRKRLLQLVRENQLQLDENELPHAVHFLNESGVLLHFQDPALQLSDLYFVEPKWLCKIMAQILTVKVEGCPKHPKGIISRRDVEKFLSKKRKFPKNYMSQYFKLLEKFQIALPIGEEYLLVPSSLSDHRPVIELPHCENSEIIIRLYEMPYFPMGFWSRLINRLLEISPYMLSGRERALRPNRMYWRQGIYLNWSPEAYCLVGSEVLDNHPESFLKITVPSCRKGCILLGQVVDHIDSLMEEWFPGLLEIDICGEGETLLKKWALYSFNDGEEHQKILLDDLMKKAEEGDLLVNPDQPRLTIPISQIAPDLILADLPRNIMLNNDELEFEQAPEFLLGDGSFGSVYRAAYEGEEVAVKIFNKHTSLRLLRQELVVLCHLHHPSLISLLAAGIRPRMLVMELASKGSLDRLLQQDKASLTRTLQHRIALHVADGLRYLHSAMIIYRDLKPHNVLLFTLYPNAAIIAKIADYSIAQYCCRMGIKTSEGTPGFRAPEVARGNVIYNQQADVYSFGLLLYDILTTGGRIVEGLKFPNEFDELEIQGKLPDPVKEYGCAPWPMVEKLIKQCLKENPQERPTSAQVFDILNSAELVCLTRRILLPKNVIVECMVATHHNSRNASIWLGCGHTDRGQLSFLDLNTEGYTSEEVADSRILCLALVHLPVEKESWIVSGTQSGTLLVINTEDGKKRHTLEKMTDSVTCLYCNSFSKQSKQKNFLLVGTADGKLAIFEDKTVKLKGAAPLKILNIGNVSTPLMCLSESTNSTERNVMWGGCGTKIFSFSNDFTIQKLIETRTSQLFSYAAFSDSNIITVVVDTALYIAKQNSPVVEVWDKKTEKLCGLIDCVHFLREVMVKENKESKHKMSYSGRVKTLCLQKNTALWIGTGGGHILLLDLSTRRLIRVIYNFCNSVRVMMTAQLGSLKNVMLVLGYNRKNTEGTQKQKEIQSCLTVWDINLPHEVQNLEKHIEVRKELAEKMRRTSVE
# Mitogen-activated protein kinase 14 (Homo sapiens), sequence (Q16539 whole entry): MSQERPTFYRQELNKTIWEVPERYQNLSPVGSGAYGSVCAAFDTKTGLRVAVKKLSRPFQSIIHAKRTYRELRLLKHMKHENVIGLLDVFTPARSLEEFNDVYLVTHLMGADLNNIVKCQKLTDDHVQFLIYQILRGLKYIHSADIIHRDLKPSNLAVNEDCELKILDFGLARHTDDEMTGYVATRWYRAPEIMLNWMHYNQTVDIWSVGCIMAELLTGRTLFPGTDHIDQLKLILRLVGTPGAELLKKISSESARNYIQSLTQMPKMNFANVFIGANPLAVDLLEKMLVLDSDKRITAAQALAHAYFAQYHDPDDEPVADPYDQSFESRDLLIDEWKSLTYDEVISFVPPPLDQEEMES
# Ephrin type-A receptor 7 (Homo sapiens), sequence (Q15375 28-998 limits assumed): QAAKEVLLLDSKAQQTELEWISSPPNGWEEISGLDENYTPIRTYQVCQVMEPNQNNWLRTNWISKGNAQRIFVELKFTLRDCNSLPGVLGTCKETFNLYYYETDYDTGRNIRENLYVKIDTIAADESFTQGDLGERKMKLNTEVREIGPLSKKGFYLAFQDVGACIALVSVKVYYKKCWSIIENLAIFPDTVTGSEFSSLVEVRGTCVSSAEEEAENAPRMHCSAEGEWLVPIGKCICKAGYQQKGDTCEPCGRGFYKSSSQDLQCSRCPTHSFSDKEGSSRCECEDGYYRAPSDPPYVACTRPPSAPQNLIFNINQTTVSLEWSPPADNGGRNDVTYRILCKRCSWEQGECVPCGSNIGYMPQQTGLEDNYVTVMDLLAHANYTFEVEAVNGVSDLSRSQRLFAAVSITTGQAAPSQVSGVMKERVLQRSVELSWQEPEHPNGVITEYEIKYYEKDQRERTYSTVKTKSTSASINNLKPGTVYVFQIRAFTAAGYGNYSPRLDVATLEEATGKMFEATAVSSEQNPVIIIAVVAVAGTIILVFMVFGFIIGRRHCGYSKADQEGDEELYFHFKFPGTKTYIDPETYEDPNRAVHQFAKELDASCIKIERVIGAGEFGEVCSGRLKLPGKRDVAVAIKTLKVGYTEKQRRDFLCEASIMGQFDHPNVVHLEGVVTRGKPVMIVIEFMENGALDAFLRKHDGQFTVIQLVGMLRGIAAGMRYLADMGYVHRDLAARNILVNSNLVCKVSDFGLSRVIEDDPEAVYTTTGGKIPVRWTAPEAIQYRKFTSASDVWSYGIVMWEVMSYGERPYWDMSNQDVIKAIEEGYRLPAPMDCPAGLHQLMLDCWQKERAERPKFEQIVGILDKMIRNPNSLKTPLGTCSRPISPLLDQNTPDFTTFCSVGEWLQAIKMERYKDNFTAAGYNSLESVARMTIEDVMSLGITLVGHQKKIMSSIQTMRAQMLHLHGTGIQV
# Mitogen-activated protein kinase 1 (Homo sapiens), sequence (P28482 whole entry): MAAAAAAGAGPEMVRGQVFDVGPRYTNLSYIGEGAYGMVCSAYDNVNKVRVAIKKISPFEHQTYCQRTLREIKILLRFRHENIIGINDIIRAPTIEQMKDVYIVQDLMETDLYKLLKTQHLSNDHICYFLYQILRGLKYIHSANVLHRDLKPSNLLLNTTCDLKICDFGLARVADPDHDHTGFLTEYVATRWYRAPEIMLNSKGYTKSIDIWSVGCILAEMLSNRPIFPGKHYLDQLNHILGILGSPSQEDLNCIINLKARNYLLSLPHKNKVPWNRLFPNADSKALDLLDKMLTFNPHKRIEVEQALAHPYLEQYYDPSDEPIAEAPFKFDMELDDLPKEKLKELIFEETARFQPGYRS
structure (smiles),measurement,setting,value
CCN1CCN(Cc2ccc(NC(=O)c3ccc(C)c(C#Cc4cccnc4)c3)cc2C(F)(F)F)CC1,"residual binding, % of control",[1],0.65%
same,inhibition,[2],59%
same,"residual binding, % of control",[3],1.4%
same,"residual binding, % of control",[4],84%
same,inhibition,[5],34%
same,"residual binding, % of control",[6],0.05%
same,"residual binding, % of control",[7],100%
same,"level, % of control",[8],0%
same,"residual binding, % of control",[9],77%
same,inhibition,[10],43%
same,"level, % of control",[11],100%
same,inhibition,[12],21%
same,"level, % of control",[13],70%
same,"residual binding, % of control",[14],100%
same,inhibition,[15],11%
same,inhibition,[16],6.8%
same,"residual binding, % of control",[17],47%
same,"residual binding, % of control",[18],100%
same,"level, % of control",[19],2.3%
same,"level, % of control",[20],40%
same,"residual binding, % of control",[21],7.5%
same,"residual binding, % of control",[22],0.5%
same,"level, % of control",[23],21%
same,"residual binding, % of control",[24],8.4%
same,"residual binding, % of control",[25],100%
same,"residual binding, % of control",[26],2.8%
same,inhibition,[27],30%
same,"residual binding, % of control",[28],13%
same,inhibition,[29],56%
same,inhibition,[30],21%
same,"residual binding, % of control",[31],1.6%
same,"level, % of control",[32],100%
same,inhibition,[33],48%
same,"residual binding, % of control",[34],4.2%
same,"level, % of control",[35],1.8%
same,"residual binding, % of control",[36],100%
same,inhibition,[37],100%
same,"level, % of control",[38],4%
same,"residual binding, % of control",[39],0.55%
same,"residual binding, % of control",[40],75%
same,"level, % of control",[41],0%
CCN1CCN(Cc2ccc(NC(=O)c3ccc(C)c(C#Cc4cnc5[nH]ccc5c4)c3)cc2C(F)(F)F)CC1,"residual binding, % of control",[1],1.9%
same,inhibition,[2],20%
same,"residual binding, % of control",[3],4.8%
same,"residual binding, % of control",[4],100%
same,inhibition,[5],60%
same,"residual binding, % of control",[6],0.2%
same,"residual binding, % of control",[7],100%
same,"level, % of control",[8],0%
same,"residual binding, % of control",[9],35%
same,inhibition,[10],60%
same,"level, % of control",[11],100%
same,inhibition,[12],11%
same,"level, % of control",[13],61%
same,"residual binding, % of control",[14],96%
same,inhibition,[15],3.2%
same,inhibition,[16],29%
same,"residual binding, % of control",[17],14%
same,"residual binding, % of control",[18],12%
same,"level, % of control",[19],3.5%
same,"level, % of control",[20],22%
same,"residual binding, % of control",[21],8.8%
same,"residual binding, % of control",[22],0.95%
same,"level, % of control",[23],29%
same,"residual binding, % of control",[24],27%
same,"residual binding, % of control",[25],100%
same,"residual binding, % of control",[26],2.5%
same,inhibition,[27],3.6%
same,"residual binding, % of control",[28],11%
same,inhibition,[29],13%
same,inhibition,[30],18%
same,"residual binding, % of control",[31],0.8%
same,"level, % of control",[32],14%
same,inhibition,[33],60%
same,"residual binding, % of control",[34],1.4%
same,"level, % of control",[35],0.1%
same,"residual binding, % of control",[36],100%
same,inhibition,[37],100%
same,"level, % of control",[38],0.25%
same,"residual binding, % of control",[39],0.1%
same,"residual binding, % of control",[40],83%
same,"level, % of control",[41],0%
